{"source": "paper PMC10497828", "about": "“A novel peptide derived from vascular endothelial growth factor prevents amyloid beta aggregation and toxicity” (Aging Cell, 2023)", "key": {"Aβ42 oligomers (LMW Aβo)": {"target": "T1, Aβ42 oligomers (LMW Aβo) (Homo sapiens, UniProt P05067)", "T1 construct": "Biotinyl-Amyloid b pr otein ( 1-42); purchased Bachem H-5642; host or cells: chemical synthesis", "T1 sequence (P05067 672-713 limits assumed)": "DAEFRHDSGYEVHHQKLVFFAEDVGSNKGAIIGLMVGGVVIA", "experiment": "Indirect ELISA, binding of immobilized BP/CP to biotinylated LMW Aβ42 oligomers", "experimental": "(§1) Synthetic Aβ40, Aβ42, and their biotinylated forms were obtained as lyophilized samples from Bachem (Aβ40, b‐Aβ40, Aβ42 and b‐Aβ42). Briefly, peptides were solubilized in 1,1,1,3,3,3‐hexafluoro‐2‐propanol to prevent oligomerization, then evaporated overnight under a chemical fume hood, and stored as a dried peptide film at −80°C until use, as previously described (Stine et al., [2003]). Aβ monomers (Aβm) were prepared extemporaneously by first dissolving the peptide film in 2 mM dimethyl sulfoxide (DMSO) and vortexing for 1 min. Peptides were further diluted to 100 μM in ice‐cold PBS. Diluted peptides were subsequently sonicated for 20 min at 4°C, centrifuged at 10,000g for 3 min, then the supernatant was collected and concentration of Aβm measured using a micro BCA protein assay kit, prior to being aliquoted and stored at −20°C until use. […]\n(§2) The binding of CP or BP to synthetic biotinylated LMW Aβo (oligomerized at 4°C for 24 h) or Aβ40 monomers (Aβm) was determined by indirect ELISA in which CP or BP were used as the capture antigens and the biotin tag of the biotinylated Aβ peptides for the detection. […] Absorbance was successively measured at 450 and 540 nm with a TECAN microplate reader and optical density values at 540 nm were subtracted from the ones at 450 nm to correct for optical imperfections of the plate. […]"}, "[1]": {"target": "T2, Aβo-VEGF interaction (recombinant human VEGF165) (Homo sapiens, UniProt P05067)", "T2 construct": "Biotinyl-Amyloid b pr otein ( 1-42); purchased R&D Systems (VEGF165); Bachem (biotinyl-Aβ 1-42) 293-VE (VEGF165); H-5642 (biotinyl-Aβ 1-42)", "T2 sequence (P05067 672-713 limits assumed)": "as above", "experiment": "Competitive ELISA, Aβo binding to immobilized VEGF165", "format": "biochemical", "experimental": "Data were expressed as mean ± SEM in ThT, Western blotting, synaptic targeting experiments and electrophysiological recordings (Table S2). Normality and variance homoscedasticity were assessed using descriptive analysis and appropriate tests. Sample size (n) was determined based on previous studies from the literature and pilot experiments; n refers to the number of ELISA, ThT or Western Blotting experiments, to coverslips or culture wells for hippocampal neuron cultures, and to mice per condition or per genotype for electrophysiological experiments. […] For the analysis of Aβ‐BP interaction, K D was determined by fitting the data to a two‐parameter saturation curve. […] For quantitative assessment of Aβ aggregation, Aβ expression level and the percentage of synapses colocalized with Aβ, data were compared for statistical significance between groups using a Kruskal–Wallis and a Dunn's post hoc test with Holm correction (R software) (Table S3). For electrophysiological data, statistical analysis between treatments and/or genotypes were carried out using a Kruskal–Wallis followed by a Dunn's post hoc test to compare differences in fEPSP slopes (Table S3). […]\nCompeti tive ELISA experi ments were performed to anal yse the ability of the BP to impede bi oti nyl ated LMW Aβo bi ndi ng to VEGF. […] After adding the stop solution, absorbance was measured using a TECAN microplate reader."}, "[2]": {"tested_on": "synapses / LTP impaired by Aβo", "details": "ref Martin et al., 2021; cited from earlier work"}, "Aβ40 monomers (Aβm)": {"target": "T3, Aβ40 monomers (Aβm) (Homo sapiens, UniProt P05067)", "T3 construct": "Biotinyl-Amyloid b pr otein ( 1-40); purchased Bachem H-5914; host or cells: chemical synthesis", "T3 sequence (P05067 672-711 limits assumed)": "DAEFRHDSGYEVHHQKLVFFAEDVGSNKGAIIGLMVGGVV", "experiment": "Indirect ELISA, binding of immobilized BP/CP to biotinylated Aβ40 monomers", "details": "Aβm 0 to 10 μg/mL", "experimental": "as §1, §2"}, "[3]": {"tested_on": "Aβ42 monomers (Aβm), fibrillation", "experiment": "Thioflavin T aggregation assay", "format": "biochemical", "details": "increasing concentrations 0.5 to 15 μM, 15 μM Aβm, 24 h", "experimental": "as §1\nThioflavin‐T (ThT) assays were performed in black polystyrene 384‐well plates using a Tecan microplate reader with a set of excitation/emission wavelengths of 450/490 nm. […] The plate was sealed with a transparent plastic film and incubated at 37°C prior to fluorescence measurement. ThT fluorescence intensity was monitored every 5 min over 24 h at 37°C without agitation. Three replicates per condition were measured.\nData were expressed as mean ± SEM in ThT, Western blotting, synaptic targeting experiments and electrophysiological recordings (Table S2). […]"}, "Aβ42 fibrils": {"tested_on": "Aβ42 fibrils", "experiment": "Transmission electron microscopy of Aβ aggregates", "format": "biochemical", "experimental": "Synthetic Aβ40, Aβ42, and their biotinylated forms were obtained as lyophilized samples from Bachem (Aβ40, b‐Aβ40, Aβ42 and b‐Aβ42). Briefly, peptides were solubilized in 1,1,1,3,3,3‐hexafluoro‐2‐propanol to prevent oligomerization, then evaporated overnight under a chemical fume hood, and stored as a dried peptide film at −80°C until use, as previously described (Stine et al., [2003]). Aβ monomers (Aβm) were prepared extemporaneously by first dissolving the peptide film in 2 mM dimethyl sulfoxide (DMSO) and vortexing for 1 min. Peptides were further diluted to 100 μM in ice‐cold PBS. Diluted peptides were subsequently sonicated for 20 min at 4°C, centrifuged at 10,000g for 3 min, then the supernatant was collected and concentration of Aβm measured using a micro BCA protein assay kit, prior to being aliquoted and stored at −20°C until use. […] Aβ preparations were used either directly as monomers (for Aβ40 Elisa assays and ThT experiments) or were subjected to different oligomerization states, enriched in high molecular weight Aβ42 oligomers (HMW Aβo) or in low molecular weight Aβ42 oligomers (LMW Aβo). For Aβ preparations enriched in Aβ fibrils, monomeric Aβ42 peptides (Aβm) were incubated at a concentration of either 30 μM or 15 μM during 24 h at 37°C. For HMW Aβo, Aβm was incubated at 15 μM for 2 h at 37°C. […]"}, "[4]": {"tested_on": "Aβ42 oligomerization (monomers, LMW and HMW Aβo)", "experiment": "Western blot (6E10) of soluble Aβ species formed in presence of peptide", "format": "biochemical", "details": "equimolar peptide, 15 μM Aβm, 37°C", "experimental": "as §1\nAfter a 45 min blocking step in Tris‐buffered saline, 0.1% Tween, pH 7.6, 5% milk, membranes were immunoblotted overnight at 4°C with dedicated antibodies (Table S1) diluted in Tris‐buffered saline, 0.1% Tween, pH 7.6, with 2% milk. […] Proteins were visualized with an ECL detection system and band intensities quantified using a densitometric analysis with ImageJ software."}, "[5]": {"tested_on": "hippocampal neuron cultures (Aβo binding to PSD95/Bassoon synapses)", "experiment": "Synaptic targeting in hippocampal neurons by Aβ oligomerized with peptide", "format": "cell-based, C57Bl/6JRj mouse", "details": "Aβ oligomerized 2 h in presence of peptide; 0.5 μM, 30 min", "experimental": "Primary hippocampal neuron cultures were prepared from E17‐18 C57Bl/6JRj mice. Briefly, hippocampi were removed and collected in Hank's buffered salt solution (HBSS), digested in HBSS supplemented with trypsin (0.25% v/v) for 10 min at 37°C and then rinsed in HBSS and BSA 0.2%. Next, hippocampi were triturated in Neurobasal medium without phenol red, supplemented with L‐glutamine (2 mM), 2% B27, 1% penicillin/streptomycin (P/S) (10,000 U/mL). Hippocampal neurons were then plated onto poly‐L‐lysine coated coverslips (0.5 mg/mL) at a low density (15 × 10^3 cells/cm^2) for synaptic targeting experiments. Neurons were cultured in supplemented Neurobasal medium at 37°C under 5% CO2, one‐half of the medium being changed once a week. […]\nTreated hippocampal neuron cultures were fixed for 4 min in 4% paraformaldehyde (PFA) in 0.1 M phosphate buffer at RT, prior to immunostaining. After a blocking step in non‐permeabilizing condition (PBS, 1% BSA) surface‐bound biotinylated Aβ was detected with fluorescently tagged streptavidin incubated for 3 h at RT. […]\nSubsequent analyses of hippocampal synapse staining were performed by a blinded investigator with Icy software. […] Biotinylated Aβ clusters were quantified in each ROI in collapsed Z‐stacks. […]"}, "[6]": {"tested_on": "SC-CA1 synapses in WT hippocampal slices", "experiment": "LTP (TBS) in WT hippocampal slices", "format": "cell-based, wild-type mouse", "experimental": "(§3) Data were expressed as mean ± SEM in ThT, Western blotting, synaptic targeting experiments and electrophysiological recordings (Table S2). Normality and variance homoscedasticity were assessed using descriptive analysis and appropriate tests. Sample size (n) was determined based on previous studies from the literature and pilot experiments; n refers to the number of ELISA, ThT or Western Blotting experiments, to coverslips or culture wells for hippocampal neuron cultures, and to mice per condition or per genotype for electrophysiological experiments. […] For the analysis of Aβ‐BP interaction, K D was determined by fitting the data to a two‐parameter saturation curve. […] For quantitative assessment of Aβ aggregation, Aβ expression level and the percentage of synapses colocalized with Aβ, data were compared for statistical significance between groups using a Kruskal–Wallis and a Dunn's post hoc test with Holm correction (R software) (Table S3). For electrophysiological data, statistical analysis between treatments and/or genotypes were carried out using a Kruskal–Wallis followed by a Dunn's post hoc test to compare differences in fEPSP slopes (Table S3)."}, "[7]": {"tested_on": "SC-CA1 synapses in APP/PS1 hippocampal slices", "experiment": "LTP (TBS) in APP/PS1 hippocampal slices", "format": "cell-based, APP/PS1-21 mouse", "experimental": "as §3"}, "[8]": {"tested_on": "SC-CA1 synapses in WT hippocampal slices", "experiment": "Paired-pulse facilitation in WT hippocampal slices", "format": "cell-based, wild-type mouse", "details": "50 ms, after TBS", "quoted_text": "(§4) Local field potential recordings (LFP) were performed on acute coronal hippocampal slices from 8‐month‐old wild type and transgenic heterozygous male APP/PS1‐21 mice to measure baseline synaptic response and long‐term potentiation (LTP) of Schaffer collaterals to CA1 (SC‐CA1) pyramidal cell synapses. Hippocampal slices (400 μm thick) were cut using a vibratome (Leica VT1200S) and incubated at room temperature in artificial cerebrospinal fluid (ACSF) containing (in mM): 124 NaCl, 10 glucose, 1.25 NaH2PO4, 2.5 KCl, 26 NaHCO3, 1.3 MgCl2, and 2.5 CaCl2, bubbled with 95% O2 and 5% CO2, pH 7.4 for 1 h prior to recording. Field excitatory postsynaptic potentials (fEPSPs) were recorded extracellularly in stratum radiatum of CA1 region of the dorsal hippocampus in presence of gamma‐aminobutyric acid (GABA)‐A receptor antagonist picrotoxin (100 μM). Electrical stimulation was realized with a bipolar tungsten electrode placed in CA1 stratum radiatum and fEPSPs were measured using borosilicate glass microelectrodes (~1–3 MΩ) filled with ACSF. […] LFP were sampled at 10 kHz and fEPSPs initial slope was computed to quantify synaptic responses. […] For quantification, the slope of the synaptic response to the second stimulation was divided by that of the first response."}, "[9]": {"tested_on": "SC-CA1 synapses in APP/PS1 hippocampal slices", "experiment": "Paired-pulse facilitation in APP/PS1 hippocampal slices", "format": "cell-based, APP/PS1-21 mouse", "details": "50 ms, after TBS", "quoted_text": "as §4"}, "[10]": {"tested_on": "VEGFR2 phosphorylation (Tyr1175) in HUVEC", "experiment": "VEGFR2 phosphorylation Western blot in HUVEC", "format": "cell-based, human", "details": "0.5 μM, 5 min", "quoted_text": "Human um bi l i cal v ei n endothel i al C ell s (HUVEC ) were obtai ned from Pr omocel l and cul tured\nin 6 cm Petri di s hes pre-coated wi th col l ag en I at 5 µ g /cm2 in 20 mM glacial acetic acid. HUVEC\nwere cultured at 7000 cells/cm2 in endothelial cell growth medium MV2 heparin free\n(Promocel l ) s uppl emented wi th 1% P/S unti l reac hi ng 80% c onfl uency , an d were us ed for u p\n0.5 µ M. After treatments, HUVEC were washed a nd i ncubated i n 6 00 mL of l ysi s buf fer (Tri s HCL 25 mM, EDTA 5 mM, DOC 0.5 mM, NP40 1%, SDS 0.1%, NaCl 150 mM), suppl emented with cOmplete protease inhibitor cocktail 2%, Benzonase 0.02%, Orthovanadate 2%, and phos phat as e i nhi bi t ors 2% for 10 mi n at 4°C .\nFor immunoblotting of HUVEC cel l l y s ates , 20 µg of proteins were separated on 3-8% g radi ent SDS-PAGE gels at 120V, with cathode and ano de contai ni ng XT Try ci ne buffe r. G el s w ere transferred on 0.2 µm nitrocellulose membranes at 120V for 2h in 5% methanol, Tris-Glycine buffer and immunoblotted.\nwere used in combination with approp riate secondary antibodies (Table S1)"}, "[11]": {"details": "0.5 μM, at least 40 min before TBS"}}, "note": "Ends that are not written are not given here.", "data": [{"substance": "KRKKSRYKSWSVYVG [BP]", "values": [{"measurement": "Kd", "setting": "Aβ42 oligomers (LMW Aβo)", "result": 12, "unit": "nM"}, {"measurement": "EC50", "setting": "[1]; Aβo 2.1 μM preincubated with BP 1 h RT, three-parameter sigmoidal fit, n = 5-6", "result": 350, "unit": "nM"}]}, {"substance": "VEGF", "values": [{"measurement": "Protection of synapses / LTP from Aβo", "setting": "[2]", "result": "ability to preserve synapses from dysfunction and LTP deficits caused by Aβo"}]}, {"substance": "NDYKDDDDKGAAA [CP]", "values": [{"measurement": "Binding of Aβo to immobilized peptide", "setting": "Aβ42 oligomers (LMW Aβo); ELISA, Aβo 0 to 10 μg/mL", "result": "failed to bind to the CP even at the highest concentration"}, {"measurement": "Binding of Aβm to immobilized peptide", "setting": "Aβ40 monomers (Aβm)", "result": "failed to bind to the CP even at the highest concentration"}, {"measurement": "Effect on ThT fluorescence", "setting": "[3]", "result": "had no impact on ThT fluorescence"}, {"measurement": "Morphology of Aβ aggregates by TEM", "setting": "Aβ42 fibrils; Aβ 30 μM + equimolar peptide, 24 h at 37°C, n = 4", "result": "typical fibrillary structures"}, {"measurement": "Structures formed by peptide alone, TEM", "setting": "Aβ42 fibrils; peptide alone, no Aβ", "result": "do not show any detectable 3D structures"}, {"measurement": "Effect on proportion of Aβ species", "setting": "[4]", "result": "did not change the proportion of Aβo species"}, {"measurement": "Aβo binding to neuron surface and synapses", "setting": "[5]", "result": "strong binding to hippocampal neuron surface"}, {"measurement": "Effect on LTP in WT slices", "setting": "[6]; [11]", "result": "neither CP nor the BP impacted LTP responses"}, {"measurement": "LTP amplitude, fEPSP slope 55–60 min after TBS", "setting": "[6]; peptide 0.5 μM at least 40 min before TBS, WT slices, 8-month-old male, mean ± SEM, n = 6 mice", "result": "191.4 ± 18.3", "unit": "%"}, {"measurement": "Effect on LTP in APP/PS1 slices", "setting": "[7]; [11]", "result": "failed to restore LTP"}, {"measurement": "LTP amplitude, fEPSP slope 55–60 min after TBS", "setting": "[7]; peptide 0.5 μM at least 40 min before TBS, APP/PS1 slices, 8-month-old male, mean ± SEM, n = 7 mice", "result": "119 ± 9.1", "unit": "%"}, {"measurement": "Effect on paired-pulse ratio", "setting": "[8]", "result": "no differences were detected"}, {"measurement": "Effect on paired-pulse ratio", "setting": "[9]", "result": "no differences were detected"}, {"measurement": "Effect on basal VEGFR2 phosphorylation", "setting": "[10]", "result": "did not affect basal VEGFR2 phosphorylation level"}, {"measurement": "Effect on Aβo-VEGF interaction", "setting": "[1]; peptide preincubated with Aβo 2.1 μM", "result": "did not affect Aβo binding"}]}]}
